Test results published in article doi:10.1101/306035v1 (biorxiv, 2018).

Biological target: T1, DcaPTrunc (Acinetobacter baumannii, UniProt A0A0D5YFT0)
T1 sequence (A0A0D5YFT0 89-434): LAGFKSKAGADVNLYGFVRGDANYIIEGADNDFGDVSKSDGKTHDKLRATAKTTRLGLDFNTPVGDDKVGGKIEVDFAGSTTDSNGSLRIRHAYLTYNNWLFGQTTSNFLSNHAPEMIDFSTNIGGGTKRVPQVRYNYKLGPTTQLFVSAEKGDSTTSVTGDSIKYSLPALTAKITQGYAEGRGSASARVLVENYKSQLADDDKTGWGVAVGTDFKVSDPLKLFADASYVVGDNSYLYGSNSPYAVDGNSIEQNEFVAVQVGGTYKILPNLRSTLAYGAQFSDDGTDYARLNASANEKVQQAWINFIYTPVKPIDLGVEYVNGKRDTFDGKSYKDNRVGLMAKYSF
Assay: biochemical

Compound: O=C(O)c1ccccc1C(=O)O [o-phthalic acid]
- Kd: ~9 mM
